In experiment [1] the test system is thyroparathyroidectomized (TPTX) rats. The experiment in a line: Urinary excretion of Pi and other electrolytes after TPFA in vivo. The arrangement: species or system rat; Phosphate excretion: unit not given here. As for the experimental part:
Surgically thyroparathyroidectomized (TPTX) rats of 180-220 g body wt (Johnson Laboratories, Chicago, IL) were placed in metabolic cages and were fed 15 g of the low phosphate (P =0.07%) diet (ICN, Cleveland, OH) and 25 ml distilled water per day prior to and throughout the study (J. Clin. Invest. 67, 1347 (1981)). The animals were weighed daily. Urine samples (24-hour period) were collected each day for determination of urine volue, creatinine, Pi, Ca^++, Na^+ and K^+. After stabilization of rats on the low phosphate diet for 4 days, the "experimental" group of rats were injected with TPFA (500 mg/kg b wt) intraperitoneally, divided in two daily doses, while the "control" rats received the vehicle only. TPFA for i.p. injection was dissolved in distilled water and the control animals were injected with the same volume of NaCl solution containing the equimolar amount of Na^+. When appropriate, the results were evaluated statistically using student's t-test for either group or paired comparisons. Values of P >0.05 were considered nonsignificant (NS).

The target in another experiment is T1, BBM enzymes APase (Rattus norvegicus, UniProt P08289).
T1 construct: from tissue; host or cells: renal brush border membrane vesicles (rat inferred)
T1 sequence (P08289 18-502 limits assumed): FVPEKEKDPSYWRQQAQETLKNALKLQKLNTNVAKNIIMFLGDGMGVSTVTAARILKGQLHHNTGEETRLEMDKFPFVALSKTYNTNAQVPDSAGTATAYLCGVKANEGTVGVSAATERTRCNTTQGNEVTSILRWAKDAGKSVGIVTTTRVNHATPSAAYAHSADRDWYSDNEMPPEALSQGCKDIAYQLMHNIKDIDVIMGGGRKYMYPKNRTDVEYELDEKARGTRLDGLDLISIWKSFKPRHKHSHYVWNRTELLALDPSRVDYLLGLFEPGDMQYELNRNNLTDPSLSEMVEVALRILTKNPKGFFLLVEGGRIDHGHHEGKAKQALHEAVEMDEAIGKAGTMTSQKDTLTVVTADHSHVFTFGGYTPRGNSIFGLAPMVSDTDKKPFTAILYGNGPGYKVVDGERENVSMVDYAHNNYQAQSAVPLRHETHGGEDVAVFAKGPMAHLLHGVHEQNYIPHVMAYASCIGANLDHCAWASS
Kind of experiment: Effect on BBM enzyme APase (data not shown). Type of experiment: biochemical.

The subject of experiment [2] is D-[^3 H]-glucose uptake by BBMV. The experiment in a line: Na+-gradient-dependent uptake of D-[3H]-glucose by renal BBMV. Type of experiment: biochemical, rat. Conditions: 1 mM TPFA; mean ± SEM, n=4; control 66±15. As for the experimental part:
The brush border membrane vesicles (BBMV) were prepared from renal cortical tissue of adult male Sprague-Dawley rats of an average body weight of about 220 grams. Rats were fed ad libitum standard rat chow containing 0.7% Pi and had free access to distilled water. Rats were sacrificed under anesthesia and dissected renal cortical tissue was used for preparation of BBMV fraction by the divalent cation-precipitation procedure, employed and described in detail in J. Clin. Invest., 67, 1347 (1981) and J. Biol. Chem., 258, 5695 (1983), with the following modifications: (a) MgCl2 instead of CaCl2 was added to crude homogenate (final concentration 10 mM MgCl2) to precipitate membranes other than BBMV; (b) in the final step, BBMV were washed and equilibrated in a medium of pH=7.5, instead of pH=8.5. The enrichment and specific activities of typical BBM enzymes alkaline phosphatase (APases), γ-glutyamyl transferase (γ-GTT), leucineaminopeptidase (LAP) and maltase with use of these modifications were similar as in BBMV fractions prepared in our previous studies. […]
The BBMV uptake of ^32 Pi, D-[^3 H]-glucose, L-[^3 H]-proline and ^22 Na^+ was measured by means of a rapid filtration technique, as described in J. Clin. Invest., 67, 1347 (1981) and Am. […]

Another experiment has as its target T2, (Na-K)ATPase (Rattus norvegicus, UniProt P06685).
T2 construct: from tissue; host or cells: basolateral membrane, kidney (tissue and rat inferred)
Kind of experiment: Effect on BaLM enzyme (Na-K)ATPase (data not shown). Type of experiment: biochemical.

Where [3] appears, read: Day 1 (baseline), experimental group, TPTX rats.
Where [4] appears, read: Day 2, TPFA 500 mg/kg per day i.p. on day 2 and day 3, TPTX rats.
Where [5] appears, read: Day 3, TPFA 500 mg/kg per day i.p. on day 2 and day 3, TPTX rats.
The mark [6] stands for this setting: Day 4, after TPFA 500 mg/kg per day i.p. on day 2 and day 3, TPTX rats.

Structures can show the parent of a compound that is named as a salt.

For `O=C(O)P(=O)(O)O` [TPFA, Phosphonoformic acid, trisodium salt hexahydrate], the Calcium excretion in experiment [1] (setting [3]) amounted to 0.3 ± 0.07 mmoles/mg creatinine; in experiment [1] (setting [4]), 0.2 ± 0.09 mmoles/mg creatinine; in experiment [1] (setting [5]) it was 0.3 ± 0.2 mmoles/mg creatinine; in experiment [1] (setting [6]), 0.6 ± 0.5 mmoles/mg creatinine. Also, the Potassium excretion in experiment [1] (setting [3]) is 7.3 ± 1.0 mmoles/mg creatinine; in experiment [1] (setting [4]), 7.6 ± 1.1 mmoles/mg creatinine; in experiment [1] (setting [5]), 11.8 ± 3.9 mmoles/mg creatinine; in experiment [1] (setting [6]), 12.9 ± 5.3 mmoles/mg creatinine. Also, the Sodium excretion is recorded as 6.8 ± 1.1 mmoles/mg creatinine in experiment [1] (setting [3]), 8.0 ± 1.1 mmoles/mg creatinine in experiment [1] (setting [4]), 19.4 ± 11.6 mmoles/mg creatinine in experiment [1] (setting [5]) and 15.1 ± 7.0 mmoles/mg creatinine in experiment [1] (setting [6]). Further, the Phosphate excretion in experiment [1] (Day 1 (baseline, before injections on day 2 and 3), experimental group, TPTX rats on low phosphate diet, relative to creatinine, mean ± SEM of 8-9 rats) was determined as 11.8 ± 6.0; in experiment [1] (Day 2, TPFA 500 mg/kg per day i.p. in two doses on day 2 and day 3, TPTX rats, low phosphate diet, relative to creatinine) it was 30.8 ± 6.6; in experiment [1] (Day 3, TPFA 500 mg/kg per day i.p. in two doses on day 2 and day 3, TPTX rats, significantly increased vs Day 1 (P < 0.025)), 122.1 ± 37.8; in experiment [1] (setting [6]), 79.8 ± 46.9. In experiment [1] (TPFA i.p. in two daily doses, TPTX rats on low phosphate diet, FIG. 3), the “urinary excretion of Pi (in words)” value is “severalfold increase”. Besides, the “urinary excretion of Na+, K+ or calcium (in words)” value in experiment [1] (TPFA i.p. in two daily doses, TPTX rats, same urine samples) is given as “did not change”. In addition, the “effect on BBM enzyme APase” value on BBM enzymes APase was “without inhibitory effect”. Further, the “uptake of D-[3H]-glucose at 120 minutes” value in experiment [2] was 65±12 pmoles/mg protein. In addition, the “effect on BaLM enzyme (Na-K)ATPase” value on (Na-K)ATPase was “without inhibitory effect”.

Source of the values: patent US4806532A, “Inhibition of epithelial phosphate transport” (Mayo Foundation for Medical Education and Research, priority 1985, dated 1989).
